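These data come from cells grown in 96-well plates and exposed to compound for 48 hours at five concentrations. TGI: concentration producing complete growth inhibition.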
How the values were obtained:
Assay in all cases: NCI tumour cell line growth inhibition, 48 h
DU-145 prostate = tested on: DU-145 prostate
A498 renal = tested on: A498 renal
SR leukemia = tested on: SR leukemia
SK-OV-3 ovarian = tested on: SK-OV-3 ovarian
LOX IMVI melanoma = tested on: LOX IMVI melanoma
SN12C renal = tested on: SN12C renal
NCI-H226 lung = tested on: NCI-H226 lung
RXF 393 renal = tested on: RXF 393 renal
T-47D breast = tested on: T-47D breast
CCRF-CEM leukemia = tested on: CCRF-CEM leukemia
HOP-62 NSCLC = tested on: HOP-62 NSCLC
TK-10 renal = tested on: TK-10 renal
NCI-H460 lung = tested on: NCI-H460 lung
IGROV1 ovarian = tested on: IGROV1 ovarian
786-0 renal = tested on: 786-0 renal
SF-295 CNS = tested on: SF-295 CNS
K-562 leukemia = tested on: K-562 leukemia
MALME-3M melanoma = tested on: MALME-3M melanoma
UO-31 renal = tested on: UO-31 renal
MDA-MB-435 = tested on: MDA-MB-435
HOP-92 NSCLC = tested on: HOP-92 NSCLC
UACC-257 melanoma = tested on: UACC-257 melanoma
NCI/ADR-RES ovarian = tested on: NCI/ADR-RES ovarian
MOLT-4 leukemia = tested on: MOLT-4 leukemia
A549 NSCLC = tested on: A549 NSCLC
SK-MEL-2 melanoma = tested on: SK-MEL-2 melanoma
SK-MEL-5 melanoma = tested on: SK-MEL-5 melanoma
KM12 colon = tested on: KM12 colon
SNB-75 CNS = tested on: SNB-75 CNS
EKVX NSCLC = tested on: EKVX NSCLC
OVCAR-3 ovarian = tested on: OVCAR-3 ovarian
NCI-H23 lung = tested on: NCI-H23 lung
SK-MEL-28 melanoma = tested on: SK-MEL-28 melanoma
M14 melanoma = tested on: M14 melanoma
PC-3 prostate = tested on: PC-3 prostate
NCI-H522 lung = tested on: NCI-H522 lung
BT-549 breast = tested on: BT-549 breast
MDA-MB-231 breast = tested on: MDA-MB-231 breast
CAKI-1 renal = tested on: CAKI-1 renal
COLO 205 colon = tested on: COLO 205 colon
HL-60(TB) leukemia = tested on: HL-60(TB) leukemia
HCT-116 colon = tested on: HCT-116 colon
SF-268 CNS = tested on: SF-268 CNS
MCF7 breast = tested on: MCF7 breast
MDA-N = tested on: MDA-N
HCT-15 colon = tested on: HCT-15 colon
RPMI-8226 leukemia = tested on: RPMI-8226 leukemia
U251 CNS = tested on: U251 CNS
HS 578T breast = tested on: HS 578T breast
UACC-62 melanoma = tested on: UACC-62 melanoma
OVCAR-8 ovarian = tested on: OVCAR-8 ovarian
SNB-19 CNS = tested on: SNB-19 CNS
SW-620 colon = tested on: SW-620 colon
SF-539 CNS = tested on: SF-539 CNS
OVCAR-5 ovarian = tested on: OVCAR-5 ovarian
HT29 colon = tested on: HT29 colon
HCC-2998 colon = tested on: HCC-2998 colon
ACHN renal = tested on: ACHN renal
OVCAR-4 ovarian = tested on: OVCAR-4 ovarian

`COC(=O)C1c2c(c3ccccc3n2C(=O)OC)CCN2CCC1C(S(=O)(=O)c1ccccc1)C2=O` (configuration not stated) was tested, and the TGI (DU-145 prostate) was greater than 100 µM, the TGI (A498 renal) was greater than 100 µM and the TGI (SR leukemia) was greater than 100 µM. It also gave a TGI (SK-OV-3 ovarian) greater than 100 µM, a TGI (LOX IMVI melanoma) greater than 100 µM and a TGI (SN12C renal) greater than 100 µM. It also gave a TGI (NCI-H226 lung) greater than 100 µM, a TGI (RXF 393 renal) greater than 100 µM and a TGI (T-47D breast) greater than 100 µM. The TGI (CCRF-CEM leukemia) was greater than 100 µM, the TGI (HOP-62 NSCLC) was greater than 100 µM and the TGI (TK-10 renal) was greater than 100 µM. The TGI (NCI-H460 lung) was greater than 100 µM, the TGI (IGROV1 ovarian) was greater than 100 µM and the TGI (786-0 renal) was greater than 100 µM. It also gave a TGI (SF-295 CNS) greater than 100 µM, a TGI (K-562 leukemia) greater than 100 µM and a TGI (MALME-3M melanoma) greater than 100 µM. It also gave a TGI (UO-31 renal) greater than 100 µM, a TGI (MDA-MB-435) greater than 100 µM and a TGI (HOP-92 NSCLC) greater than 100 µM. It also gave a TGI (UACC-257 melanoma) greater than 100 µM, a TGI (NCI/ADR-RES ovarian) greater than 100 µM and a TGI (MOLT-4 leukemia) greater than 100 µM. For the same compound, the TGI (A549 NSCLC) was greater than 100 µM, the TGI (SK-MEL-2 melanoma) was greater than 100 µM and the TGI (SK-MEL-5 melanoma) was greater than 100 µM. For the same compound, the TGI (KM12 colon) was greater than 100 µM, the TGI (SNB-75 CNS) was greater than 100 µM and the TGI (EKVX NSCLC) was greater than 100 µM. The TGI (OVCAR-3 ovarian) was greater than 100 µM, the TGI (NCI-H23 lung) was greater than 100 µM and the TGI (SK-MEL-28 melanoma) was greater than 100 µM. The TGI (M14 melanoma) was greater than 100 µM, the TGI (PC-3 prostate) was greater than 100 µM and the TGI (NCI-H522 lung) was greater than 100 µM. It also gave a TGI (BT-549 breast) greater than 100 µM, a TGI (MDA-MB-231 breast) greater than 100 µM and a TGI (CAKI-1 renal) greater than 100 µM. For the same compound, the TGI (COLO 205 colon) was greater than 100 µM, the TGI (HL-60(TB) leukemia) was greater than 100 µM and the TGI (HCT-116 colon) was greater than 100 µM. For the same compound, the TGI (SF-268 CNS) was greater than 100 µM, the TGI (MCF7 breast) was greater than 100 µM and the TGI (MDA-N) was greater than 100 µM. For the same compound, the TGI (HCT-15 colon) was greater than 100 µM, the TGI (RPMI-8226 leukemia) was greater than 100 µM and the TGI (U251 CNS) was greater than 100 µM. It also gave a TGI (HS 578T breast) greater than 100 µM, a TGI (UACC-62 melanoma) greater than 100 µM and a TGI (OVCAR-8 ovarian) greater than 100 µM. It also gave a TGI (SNB-19 CNS) greater than 100 µM, a TGI (SW-620 colon) greater than 100 µM and a TGI (SF-539 CNS) greater than 100 µM. For the same compound, the TGI (OVCAR-5 ovarian) was greater than 100 µM and the TGI (HT29 colon) was greater than 100 µM.

In the case of `Cc1ccc2c(c1)C(=O)N1CCC[C@H]1C=N2`, the TGI (DU-145 prostate) is reported as greater than 100 µM, the TGI (A498 renal) is reported as greater than 100 µM and the TGI (SR leukemia) is reported as greater than 92.1 µM. For the same compound, the TGI (SK-OV-3 ovarian) was greater than 100 µM, the TGI (LOX IMVI melanoma) was greater than 100 µM and the TGI (SN12C renal) was greater than 100 µM. It also gave a TGI (RXF 393 renal) of 16.1 µM, a TGI (T-47D breast) greater than 100 µM and a TGI (CCRF-CEM leukemia) of 22.6 µM. For the same compound, the TGI (HOP-62 NSCLC) was greater than 83.1 µM, the TGI (TK-10 renal) was 85.7 µM and the TGI (NCI-H460 lung) was greater than 71.6 µM. The TGI (IGROV1 ovarian) was greater than 66.3 µM, the TGI (786-0 renal) was greater than 100 µM and the TGI (SF-295 CNS) was greater than 100 µM. For the same compound, the TGI (K-562 leukemia) was greater than 100 µM, the TGI (MALME-3M melanoma) was 35.2 µM and the TGI (UO-31 renal) was greater than 67 µM. It also gave a TGI (MDA-MB-435) of 33.2 µM, a TGI (HOP-92 NSCLC) greater than 86.9 µM and a TGI (UACC-257 melanoma) greater than 74.3 µM. For the same compound, the TGI (NCI/ADR-RES ovarian) was greater than 64 µM, the TGI (MOLT-4 leukemia) was greater than 84.1 µM and the TGI (A549 NSCLC) was greater than 100 µM. It also gave a TGI (SK-MEL-2 melanoma) of 34.9 µM, a TGI (SK-MEL-5 melanoma) of 26.7 µM and a TGI (KM12 colon) of 39.7 µM. It also gave a TGI (EKVX NSCLC) of 71 µM, a TGI (OVCAR-3 ovarian) greater than 67.2 µM and a TGI (NCI-H23 lung) of 39.7 µM. For the same compound, the TGI (SK-MEL-28 melanoma) was 52 µM, the TGI (HCC-2998 colon) was 45.6 µM and the TGI (M14 melanoma) was 47.8 µM. For the same compound, the TGI (PC-3 prostate) was greater than 74.4 µM, the TGI (NCI-H522 lung) was 22.5 µM and the TGI (BT-549 breast) was 84.7 µM. It also gave a TGI (MDA-MB-231 breast) greater than 66.5 µM, a TGI (CAKI-1 renal) greater than 71.7 µM and a TGI (ACHN renal) greater than 70.9 µM. For the same compound, the TGI (COLO 205 colon) was 37.8 µM, the TGI (HCT-116 colon) was greater than 100 µM and the TGI (SF-268 CNS) was greater than 100 µM. The TGI (MCF7 breast) was greater than 76.5 µM, the TGI (MDA-N) was 37.6 µM and the TGI (HCT-15 colon) was greater than 76.4 µM. For the same compound, the TGI (RPMI-8226 leukemia) was greater than 53.3 µM, the TGI (U251 CNS) was greater than 85.2 µM and the TGI (HS 578T breast) was 31.5 µM. For the same compound, the TGI (OVCAR-4 ovarian) was 53.8 µM, the TGI (UACC-62 melanoma) was 34.7 µM and the TGI (OVCAR-8 ovarian) was greater than 100 µM. It also gave a TGI (SNB-19 CNS) greater than 100 µM, a TGI (SW-620 colon) greater than 83.7 µM and a TGI (SF-539 CNS) of 37.3 µM. For the same compound, the TGI (OVCAR-5 ovarian) was greater than 93.1 µM and the TGI (HT29 colon) was greater than 55.6 µM.

Source: PubChem BioAssay (NCI)
